In general, Ki refers to the equilibrium dissociation constant of an inhibitor or competing ligand from its target. By IC50 is commonly meant the concentration at which inhibition is half-maximal.

Assay [1] has as its target T1, Sirt6 (Homo sapiens, UniProt Q8N6T7).
T1 construct: His-tag; made in house; host or cells: E. coli BL21 DE3
The experiment in a line: Ki determination with substrate 3, 96-well MTP fluorescence reader. It is filed as biochemical. As to conditions: for type of inhibition with respect to the peptide substrate: Sirt6, substrate 3. The procedure: All measurements were done in duplicates.
Supplementary Figure S13. […] Data are presented as mean ± s.d. (n=2) and lines represent the Michaelis-Menten-plot (left) and secondary plots (right). The apparent KM or Vmax^app-1 values from v/[S] characteristics were plotted against the corresponding inhibitor concentration.
Supplementary Figure S14. […] The reactions were performed with 0.5 µM Sirt6 and either 500 µM NAD^+ and varying concentrations of 3 (2-100 µM). […] Data are presented as mean ± s.d. (n=2) and lines represent the Michaelis-Menten-plot (left) and secondary plots (right). The apparent Vmax^app-1 values from v/[S] characteristics were plotted against the corresponding inhibitor concentration.
Supplementary Figure S15. Kinetic characteristics for sirtuin inhibitor 8. The reactions were performed with 0.01 µM Sirt2 /0.1 µM Sirt3 /0.5 µM Sirt6 and 500 µM NAD^+ and varying concentrations of 3 (0.07-100 µM). […] Data are presented as mean ± s.d. (n=2) and lines represent the Michaelis-Menten-plot (left) and secondary plots (right). The apparent Vmax^app-1 values from v/[S] characteristics were plotted against the corresponding inhibitor concentration.

In assay [2] the test system is Sirt6. Set-up: method as in PMID 25004411. As to conditions: cited from earlier work; for inhibition of enzymatic activity: 200 μM concentration.
The target of another assay is T2, Sirt2 (Homo sapiens, UniProt Q8IXJ6).
T2 construct: made in house
T2 sequence (Q8IXJ6 1-389): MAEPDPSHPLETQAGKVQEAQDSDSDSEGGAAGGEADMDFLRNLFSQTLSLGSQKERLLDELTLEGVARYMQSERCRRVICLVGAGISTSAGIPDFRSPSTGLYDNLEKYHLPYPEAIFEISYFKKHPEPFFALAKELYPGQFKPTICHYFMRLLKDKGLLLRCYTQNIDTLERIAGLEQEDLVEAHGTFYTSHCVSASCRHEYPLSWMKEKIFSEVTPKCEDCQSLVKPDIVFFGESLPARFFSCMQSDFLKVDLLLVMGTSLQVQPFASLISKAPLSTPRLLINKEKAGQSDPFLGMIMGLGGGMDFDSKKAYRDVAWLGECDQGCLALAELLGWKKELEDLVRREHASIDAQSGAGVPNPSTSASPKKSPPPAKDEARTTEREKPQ
The experiment in a line: Ki determination with substrate 3, 96-well MTP fluorescence reader. It is filed as biochemical. The procedure:
The microtiter plate fluorescence measurements were performed on a Tecan Infinite M200 microplate reader (Maennedorf, Switzerland) at λEx = 320 nm and λEm = 408 nm (lag time 9 μs, integration time […], gain 160, 170 or 182). The reactions (total volume 100 μl) were measured in black low-binding 96-well microtiter plates (NUNC). Assay-buffer, 500 μM NAD^+ and 0.07–200 μM peptide substrate were pre-incubated at 37 °C for 5 min. The reaction was started by adding human sirtuin (0.01–0.5 μM). The signals were converted into product concentration via calibration lines and the resulting data were evaluated as described above (single fluorescence measurement). The determination for the kinetic constants of NAD^+ was performed in the same way, except that the peptide concentration was fixed (5, 25 or 200 μM) and the NAD^+ concentration was varied (10–1500 μM). All measurements were done in duplicates. The reaction mixture for the calibration lines was prepared as described for the single fluorescence measurements. […] The resulting plots were analyzed by a competitive inhibition and non-competitive inhibition model using the program Sigma Plot 8. The linear regression of the apparent KM-values against the corresponding inhibitor concentration yielded the inhibitor constant Ki for competitive inhibition. The Ki for non-competitive inhibition was determined by linear regression of 1/apparent Vmax against the corresponding inhibitor concentration. The negative Ki value can be determined as intersection with the X-axis from these plots.
Supplementary Figure S15. Kinetic characteristics for sirtuin inhibitor 8. The reactions were performed with 0.01 µM Sirt2 /0.1 µM Sirt3 /0.5 µM Sirt6 and 500 µM NAD^+ and varying concentrations of 3 (0.07-100 µM). […] The negative Ki value can be determined as intersection with the X-axis from the Vmax^app-1/I plot.
Supplementary Figure S16. […] The negative Ki value can be determined as intersection with the X-axis from the Vmax^app-1/I plot.
Supplementary Figure S17. […] The negative Ki value can be determined as intersection with the X-axis from the Vmax^app-1/I plot.

In assay [3] the target is T1, Sirt6. The experiment in a line: Isomer specific inhibition by thioxo peptides, HPLC. It is filed as biochemical. As to conditions: substrate 2a. On the procedure: After 30 min incubation at 20 °C reaction was stopped using 10% TFA solution. Inhibitor solutions were irradiated at 254 nm for 5 min. Separated isomers were applied in concentrations from 1 to 10 μM. The influence of cis content on sirtuin inhibition using fluorescence spectrometer was determined with 500 μM NAD^+, 5 μM 3, 0.1 μM Sirt2 and 0.1 μM 9. Reactions were done at 20 °C with 9 in GS and PSS (after 5 min irradiation at 254 nm). 9 in PSS was applied immediately after irradiation (transfer time ~5 s) and started directly by adding sirtuin. Reactions were measured within 1 min to avoid re-isomerization.
Supplementary Figure S36. Determination of IC50 value of 8 for Sirt6 in GS (?) and PSS (π). Data were fitted with U(%) = Umin(%) + (Umax(%) – Umin(%))/(1+10^(x-logIC50)) with U(%) percental turmover of substrate 2a; Umin(%) lowest turnover of substrate; Umax(%) maximal turnover of substrate (n=3).
Supplementary Figure S37. Inhibition of Sirt6 by 8 (?) and 9 (π).Data were fitted with U(%) = Umin(%) + (Umax(%) – Umin(%))/(1+10^(x-logIC50)) with U(%) percental turmover of substrate; Umin(%) lowest turnover of substrate 2a; Umax(%) maximal turnover of substrate (n=3).
Supplementary Figure S38. Determination of IC50 of 9 for Sirt6 with 72.4 % cis- (π) and 70.3 % (?) trans-content. Measurements were done with 10 µM peptide substrate (big figure) or 30 µM (small figure). Data were fitted with U(%) = Umin(%) + (Umax(%) – Umin(%))/(1+10^(x-logIC50)) with U(%) percental turmover of substrate 2a; Umin(%) lowest turnover of substrate; Umax(%) maximal turnover of substrate (n=3).

The target of another assay is T3, Sirt1 (Homo sapiens, UniProt Q96EB6).
T3 construct: made in house
T3 sequence (Q96EB6 1-747): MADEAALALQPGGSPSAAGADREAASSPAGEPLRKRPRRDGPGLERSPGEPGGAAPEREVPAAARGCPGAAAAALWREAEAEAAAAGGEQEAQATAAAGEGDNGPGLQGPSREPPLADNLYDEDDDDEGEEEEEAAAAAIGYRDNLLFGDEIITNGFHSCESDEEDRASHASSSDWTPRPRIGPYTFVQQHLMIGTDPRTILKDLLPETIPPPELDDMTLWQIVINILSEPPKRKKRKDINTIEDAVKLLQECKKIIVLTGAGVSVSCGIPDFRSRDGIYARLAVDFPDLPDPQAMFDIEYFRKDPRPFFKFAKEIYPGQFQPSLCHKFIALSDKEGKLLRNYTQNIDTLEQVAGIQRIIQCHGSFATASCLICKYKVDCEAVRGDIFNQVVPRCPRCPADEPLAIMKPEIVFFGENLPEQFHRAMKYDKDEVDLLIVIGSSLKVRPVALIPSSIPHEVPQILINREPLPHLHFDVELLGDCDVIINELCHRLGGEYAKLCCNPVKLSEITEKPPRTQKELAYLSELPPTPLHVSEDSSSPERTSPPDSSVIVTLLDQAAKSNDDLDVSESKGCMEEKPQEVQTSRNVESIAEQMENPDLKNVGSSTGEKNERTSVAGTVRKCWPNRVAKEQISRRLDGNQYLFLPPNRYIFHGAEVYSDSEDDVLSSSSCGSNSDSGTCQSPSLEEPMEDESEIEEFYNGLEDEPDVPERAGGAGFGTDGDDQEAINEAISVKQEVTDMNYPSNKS
The experiment in a line: HPLC based activity assay, influence of resveratrol on Sirt1 mediated deacylation of 3. The format is biochemical. As to conditions: 0-100 µM resveratrol; Sirt1 0.5 µM, 3 20 µM, NAD+ 500 µM, 60 minutes at 37°C. On the procedure: For the determination of kinetic constants for all sirtuin mediated reactions solutions containing 20 mM TRIS/HCl pH 7.8, 150 mM NaCl, 5 mM MgCl2 (assay-buffer), 500 μM NAD^+ and varying substrate concentrations (0.5–100 μM) were used. Deacylation was started by adding human sirtuin to reach a final concentration of 0.01–0.5 μM. Enzyme-catalyzed reaction was stopped using TFA (1% final concentration) after 1 min to 180 min of incubation at 37 °C depending on substrate reactivity. The cleavage rate of the different TNFα peptide derivatives was analyzed using analytical reversed phase HPLC. 40 to 80 μl of compounds or reaction solutions were injected and separated using a linear gradient from 5% to 95% solvent B within 6min. The product and substrate peaks were quantified using absorbance at 220 nm or 365 nm (absorption of 3-Nitrotyrosyl moiety). The peak areas were integrated and converted to initial velocity rates calculated from the ratio of product area to total peak area. Linear regression of conversions plotted against time yielded reaction rates in μM/min (relative conversion below 20% of substrate). […]
Supplementary Figure S4. […] Reaction was stopped using TFA (1% final concentration) and the consumption of 3 was analyzed using HPLC. […]

The structures appear in SMILES notation. Where a name gives a salt, the structure may show the parent alone. Read-outs that look alike come from different tables or passages of the source. Starred links: 1 amine or outer side, 2 acyl side, 3 side chain; linkers in the order of their positions; H or OH if unused. Positions of bridges follow the written chain, without caps; N, C: chain ends. Non-standard residues stand in square brackets, D forms with d. Residues, ends and D or L forms follow the SMILES beside them. *: point of attachment. X1 = CCCCCCCCCCCCCC(=S)N(C)CCCC[C@H](N[*:1])C(=O)[*:2]; Tfa = O=C(C(F)(F)F)*

T1 sequence (Q8N6T7 whole entry): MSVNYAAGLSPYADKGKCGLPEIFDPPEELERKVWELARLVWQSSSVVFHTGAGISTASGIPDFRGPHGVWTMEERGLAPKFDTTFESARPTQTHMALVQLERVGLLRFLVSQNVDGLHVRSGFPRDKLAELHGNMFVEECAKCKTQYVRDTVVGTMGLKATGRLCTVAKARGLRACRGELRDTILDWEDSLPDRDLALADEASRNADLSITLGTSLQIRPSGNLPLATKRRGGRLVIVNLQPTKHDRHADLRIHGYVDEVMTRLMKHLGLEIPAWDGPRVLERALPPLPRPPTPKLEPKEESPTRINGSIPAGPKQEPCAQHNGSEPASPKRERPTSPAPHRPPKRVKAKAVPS

For `NC(=O)C1CCCc2c1[nH]c1ccc(Cl)cc21` (centres unmarked) [Ex-527], the Ki on Sirt6 [1] (Sirt6 0.5 µM, varying substrate 3, 500 µM NAD+ (saturating)) came to 100 ± 11 µM. Moreover, on Sirt6 [1], the “type of inhibition with respect to the peptide substrate” value is listed as “non-competitive”. Besides, the “inhibition of enzymatic activity” value in the assay on Sirt6 [2] is 56%. As to `NC(=O)c1cccnc1` [NAM, nicotinamide], the half-inhibitory concentration (IC50) in the assay with Sirt6 [2] was […]. For `O=c1c(O)c(-c2ccc(O)c(O)c2)oc2cc(O)cc(O)c12` [Quercetin], the “type of inhibition with respect to the peptide substrate” value at Sirt6 [1] is listed as “non-competitive”. Also, the “inhibition of enzymatic activity” value in the assay with Sirt6 [2] was 52%. With `CC(C)[C@@H]1NC(=O)[C@H](Cc2c[nH]cn2)NC(=O)[C@H](Cc2ccc(O)cc2)NC(=O)[C@H]([C@@H](C)O)NC(=O)[C@H](Cc2c[nH]cn2)NC(=O)[C@H](Cc2ccc(O)cc2)NC(=O)CSC[C@@H](C(N)=O)NC(=O)[C@H](Cc2ccc(O)cc2)NC(=O)[C@H](Cc2ccc(O)cc2)NC(=O)[C@H](CC(N)=O)NC(=O)[C@H]([C@@H](C)O)NC(=O)[C@H](CCCNC(=N)N)NC(=O)[C@H](CCCNC(=N)N)NC(=O)[C@H](CCCCNC(=O)C(F)(F)F)NC1=O` [S2iL5] ({CH2CO}-YHTYHVK(Tfa)RRTNYYC-NH2; thioether N-14), the Ki on Sirt2 (Sirt2 0.01 µM, varying substrate 3, 500 µM NAD+, read-out: Ki (3)) came out at 0.6 ± 0.2 µM; at Sirt2 (Sirt2, substrate 3, read-out: Ki-value) it was 0.56 µM.

`CCCCCCCCCCCCCC(=S)N(C)CCCC[C@H](NC(=O)[C@H](CCCCN)NC(=O)[C@@H]1CCCN1C(=O)[C@H](CC(C)C)NC(=O)[C@H](C)NC(=O)[C@H](CCC(=O)O)NC(C)=O)C(=O)N[C@H](C(=O)NCC(=O)NCC(N)=O)[C@@H](C)O` [compound 9] (Ac-EALPK[X1]TGG-NH2): the half-inhibitory concentration (IC50) on Sirt6 [3] (inhibitor with 29.7% cis isomer (HPLC-separated)) stood at 1.7 ± 0.5 µM; at Sirt6 [3] (inhibitor with 72.4% cis isomer (HPLC-separated)) it was 0.6 ± 0.1 µM. `Oc1ccc(/C=C/c2cc(O)cc(O)c2)cc1` [resveratrol]: at Sirt1, the “influence on Sirt1 mediated deacylation of 3” value was “no significant influence”.

These data come from PMC4778124, “A continuous sirtuin activity assay without any coupling to enzymatic or chemical reactions” (Scientific Reports, 2016).
